In US9134300B2, “Method for screening a drug in retinal tissue” (Research Foundation of the City University of New York, priority 2011, dated 2015):

System: microtubules
Test: Time-lapse second-harmonic generation imaging of retinal nerve fibers following treatment with nocodazole
Parameters: species or system rat
Details: retinal nerve fiber layer of retinal flat-mount; perfusion with medium containing nocodazole and 0.4% DMSO; treatment period 90 minutes
Procedure: Rat retinal flat-mounts were prepared from euthanized rats. The eyes were enucleated. A circumferential incision was made around the limbus and the cornea, lens, and vitreous humor were removed. Several radial cuts were made in the eye cup. The retina was isolated from the retinal pigment epithelium and the sclera and transferred to buffered Ames' medium (Sigma-Aldrich), which was bubbled with 95% oxygen and 5% carbon dioxide, and maintained at 34° C. and pH 7.4. The sample was transferred to a perfusion chamber with a transparent bottom (Warner Instruments) within 15 minutes after euthanasia. The retina was placed on the microscope stage with the retinal nerve fiber layer side up. The speed of laminar flow was approximate 1 mL per min.
Imaging: Simultaneous second-harmonic generation microscopy and two-photon excitation fluorescence microscopy were performed to image the fresh retina. The excitation wavelength utilized short pulses from a mode-locked Ti: Sapphire laser source with a duration of 100 fs at 80-MHz repetition rate. The excitation wavelength was 785 nm, except for the experiments where two excitation wavelengths at 785 and 880 nm are compared. […]
Fluorescence was detected in the backward beam path, which included a set of spectral filters (Chroma Technology), and photomultiplier tube (PMT) detectors (Hamamatsu). […]

**Q.** With `COC(=O)Nc1nc2ccc(C(=O)c3cccs3)cc2[nH]1` [nocodazole] as the molecule, how does the “intensity of microtubule second-harmonic generation signal” value read?
**A.** The value was “significantly reduced”.
